Assay [1] deals with tumor associated macrophages. Kind of assay: FACS analysis of tumor macrophage populations (M1, M2, TIDC). In kind it is in vivo, mouse. The text has this: The impact of the above-recited modes of Socs3 modulation upon monocyte differentiation was examined (FIGS. 20-26), employing FACS analysis of monocyte populations (FIG. 20 provides an overview of the FACS approach, where green cells were positively charged and therefore sorted towards an anode plate while negatively charged red cells were sorted toward a […]).
(A flow cytometer gives signals particle by particle.)

Assay [2] has as its system Lewis lung carcinoma cell line. The assay is described as follows: Lewis lung carcinoma (LLC) cells implanted in Socs3f/f and Socs3 Nestin ko mice, tumor growth curves. In kind it is in vivo, mouse.
The test system of assay [3] is Socs3. Kind of assay: Socs3 levels after naringenin administration to tumor-bearing mice. In kind it is in vivo, mouse. The text has this:
The surprising efficacy of localized Socs3 overexpression in reducing tumor growth prompted interest in identifying compounds capable of up-regulating Socs3. One candidate molecule for up-regulation of Socs3 was Naringenin, a flavanone compound. […] Naringenin administration was also observed to have shrunk tumors at the day 12-13 timepoint examined, with 100% of tumors of Socs3f/f mice and 60% of tumors in Socs3 nestin conditional knockout mice observed to have shrunk at day 13 of the timecourse (FIGS. 18B and 18C).

Assay [4] relates to tumors. Kind of assay: FACS of immune cells isolated from tumors treated with Naringenin or vehicle control. It is filed as in vivo. Here is the method: FIG. 45 is a series of plots quantifying the tumor volume, total tumor cells isolated from tumors, total CD45 positive cells and percentage of CD45 positive cells vs. total cells in control- or Naringenin-treated tumors. 1,2,3,4,5 represents the individual tumor in each group. In order to determine whether Naringenin influences the infiltrating of different immune cell types into tumors, fluorescence-activated cell sorting (FACS) was conducted on cells isolated from tumors treated with Naringenin or vehicle control.

Assay [5] has as its system tumor cell. The following applies: mouse, in vivo.
Assay [6] concerns B16F10-Luciferase Melanoma cell line. In kind it is in vivo, mouse.
Assay [7] concerns LLC tumor. It is filed as in vivo, mouse. Conditions: as compared to PBS-treated controls. The text has this: The effect of donepezil treatment was also examined in wild-type, heterozygote alpha-7 AChR knockout mice and homozygote alpha-7 AChR knockout mice (FIG. 40A).
The mark [8] stands for this setting: agent administered to model mice, versus control animals.

These results are taken from US20220117989A1, “COMPOSITIONS AND METHODS FOR INDUCING OR SUPPLEMENTING SOCS3 TO ABROGATE TUMOR GROWTH AND PROLIFERATIVE RETINOPATHY” (Children's Medical Center Corporation, priority 2019, published 2022).

Where two headings read alike, the source gives them in different places.

As for `O=C1NC[C@@]2(CN3CCC2CC3)O1` [AR-R17779, (2S)-2′H-spiro[4-azabicyclo[2.2.2]octane-2,5′-[1,3]oxazolidin]-2′-one], the M1 macrophage levels result in assay [1] (Socs3 neuronal deficient tumor) and in assay [1] (wild-type tumor) was “promoted M1 macrophage levels” in each case. Moreover, the results for the M2 macrophage levels result in assay [1] (Socs3 neuronal deficient tumor) and in assay [1] (wild-type tumor) were “not promoting M2 macrophage levels” and “did not change M2 macrophage levels”, respectively. Besides, in assay [2] (setting [8]), the “tumor growth, LLC tumor cells” value is “significantly prevented tumor growth”. Also, in assay [2] (day 10 post-implantation in model mice), the tumor size result was “decreased tumor size”.

Consider `O=C1C[C@@H](c2ccc(O)cc2)Oc2cc(O)cc(O)c21` [Naringenin], for which the M1 macrophage levels entry in assay [1] (Socs3 neuronal deficient tumor) is recorded as “promote M1 macrophage levels”; in assay [1] (wild-type tumor), “promoted M1 macrophage levels”. In addition, the M2 macrophage levels entry in assay [1] (Socs3 neuronal deficient tumor) is “reducing M2 macrophage levels”; in assay [1] (wild-type tumor) it was “did not change M2 macrophage levels”. In addition, the Socs3 levels entry in assay [3] is “increased Socs3 levels”. In addition, the “tumors observed to have shrunk, Socs3f/f mice” value in assay [2] (day 13 of the timecourse, Socs3f/f mice) amounted to 100%. Also, in assay [2] (day 13 of the timecourse, Socs3 nestin conditional knockout mice), the “tumors observed to have shrunk, Socs3 nestin conditional knockout mice” value came out at 60%. Further, the “tumor growth, naringenin administration” value in assay [2] (treatment administered on day 4, Socs3-containing and Socs3 nestin conditional knockout mice) was “significantly decreased tumor growth”. Moreover, in assay [4] (Naringenin treatment), the “population of CD4+ T cells in the tumors” value is listed as “did not change”. Further, in assay [4] (Naringenin-treated group), the “percentage of CD45+ γδ T cells” value is “increased”. Further, the “CD8+ T cell recruitment into tumors” value in assay [4] (Naringenin-treated tumors) was “variations”. Also, the “percentage of natural killer (NK) cells of CD45+ cells” value in assay [4] (compared to the control-treated group) is on record as “higher”. The “tumors, based on tumor volume and total cells isolated from the entire tumors” value in assay [4] (compared with control group) is listed as “significantly suppressed”.

Botulinum toxin [Botox]: in assay [5], the “tumor growth, nestin-conditional Socs3 knockout mice” value was “no additional effect on tumor growth”; the “tumor growth, wild-type mice” value is “effectively mimicked the tumor growth effect of nestin-conditional Socs3 knockout”; the tumor seeding result is “promoted tumor seeding”.

On to alpha-bungarotoxin [a-BTX], for which, in assay [1] (mouse, in vivo), the “TIDC population (CD45+; F4/80+; CD11c+ cells)” value is given as “contracted”. The “tumor growth, B16F10 tumor cells” value in assay [6] (mouse, in vivo) was “promoted tumor growth”. Also, the “tumor growth, LLC tumor cells” value in assay [2] (mouse, in vivo) is reported as “promoted tumor growth”.

For `COc1cc2c(cc1OC)C(=O)C(CC1CCN(Cc3ccccc3)CC1)C2` (stereo not shown) [donepezil], in assay [1] (mouse, in vivo), the “F4/80+/CD11c+ (M1 macrophage) cells” value is given as “expanded population” and the “TIDC population (CD45+; F4/80+; CD11c+ cells)” value is recorded as “expanded”. Besides, the “tumor growth, B16F10 tumor cells” value in assay [6] (setting [8]) is reported as “prevented tumor growth”. Further, in assay [7], the “tumor growth rate, homozygous alpha-7 AChR knockout mice” value is listed as “robust reduction of tumor growth rate” and the “tumor growth, heterozygote alpha-7 AChR knockout mice” value is “significant reduction in tumor growth”. The “tumor growth, LLC tumor cells” value in assay [2] (setting [8]) was “prevented tumor growth”.
